Values quoted from earlier work, collected in US10130578B2, “Topical delivery of skin compositions having low pH” (Johnson & Johnson Consumer Inc., priority 2015, dated 2018).

In the case of Hyaluronic acid, the pKa is listed as 2.9.
